Experimental data reported in article PMC11582173, “Synthesis, cytotoxicity, anti-inflammatory, anti-metastatic and anti-oxidant activities of novel chalcones incorporating 2-phenoxy-N-arylacetamide and thiophene moieties: induction of apoptosis in MCF7 and HEP2 cells” (Naunyn-Schmiedeberg's Archives of Pharmacology, 2024).
In brackets after ≈: the same amount, converted by molar mass.

Assays:
MCF7 = tested on: MCF7; design: method as in Khairul et al. [2020]; settings: reported chalcone derivatives; ref Khairul et al. [2020]; cited from earlier work
[1] = tested on: human breast carcinoma (MCF7) cells; test: SRB cytotoxic assay, MCF7; assay type: cell-based; settings: MCF7, 48 h; for inhibition at 100 µg/mL: single dose 100 µg/mL, read-out: %Inhibition at100 µg/mL MCF7
Experimental: (§1) All the prepared compounds were screened at a concentration of 100 µg/mL against six different human cell lines: human laryngeal carcinoma (HEP2), human colorectal carcinoma (HCT116), human breast carcinoma (MCF7), human Lung carcinoma (A549), human liver carcinoma (HEPG2), and normal African Green monkey kidney cell line (VERO). Doxorubicin was used as a positive control for comparison purposes.
(§2) The human laryngeal carcinoma (HEP2), colorectal carcinoma (HCT116), breast carcinoma (MCF7), Lung carcinoma (A549), liver carcinoma (HEPG2), and normal African Green monkey kidney cell line (VERO) were purchased from American Tissue Culture Collection (Rockville, MD, USA). The cells were treated for 48 h with a single dose (100 µg/mL) of all the tested chalcones. […] In brief, the cells were seeded in a 96-well microtiter plate at a concentration of 5×10^3 cells/well in 100 µL fresh RPMI-1640 medium and left to attach to the plates for 24 h. Then, cells were incubated with 100 μL of different concentrations (50, 25, 12.5, 6.25, and 0.0 µg/mL) of 5c in triplicate at 37 °C for 48 h. After that, the cells were fixed with 10 µL cold 100% Trichloroacetic acid (TCA) for 1h at 4 °C. The wells were then washed 1 time with distilled water using (automatic Tecan washer, Germany) and stained for 30 min at room temperature with 50 µL 0.4% SRB dissolved in 1% acetic acid. The plates were air-dried and the dye was solubilized with 100 µl/well of 1M tris base (pH 10.5) for 5 min. The optical density (O.D.) of each well was measured spectrophotometrically at 570 nm with an ELISA microplate reader (Sunrise Tecan reader, Germany) with automatic shaking for 30 seconds before reading. The mean background absorbance was subtracted automatically and mean values for each drug concentration were calculated. The percentage of cell survival was calculated as follows: Survival fraction= O.D. (treated cells)/ O.D. (control cells) (Bhat et al. [2023]).

[2] = tested on: human colorectal carcinoma (HCT116) cells; test: SRB cytotoxic assay, HCT116; assay type: cell-based; settings: HCT-116, single dose 100 µg/mL, 48 h, read-out: %Inhibition at100 µg/mL HCT116
Experimental: as §1, §2

[3] = tested on: human laryngeal carcinoma (HEP2) cells; test: SRB cytotoxic assay, HEP2; assay type: cell-based; settings: HEp-2, 48 h; for inhibition at 100 µg/mL: single dose 100 µg/mL, read-out: %Inhibition at100 µg/mL HEP2
Experimental: as §1, §2

[4] = tested on: human liver carcinoma (HEPG2) cells; test: SRB cytotoxic assay, HEPG2; assay type: cell-based; settings: single dose 100 µg/mL, 48 h, read-out: %Inhibition at100 µg/mL HEPG2
Experimental: as §1, §2

[5] = tested on: human Lung carcinoma (A549) cells; test: SRB cytotoxic assay, A549; assay type: cell-based; settings: single dose 100 µg/mL, 48 h, read-out: %Inhibition at100 µg/mL A549
Experimental: as §1, §2

[6] = tested on: normal African Green monkey kidney cell line (VERO); test: SRB cytotoxic assay, VERO normal cells; assay type: cell-based; settings: Chlorocebus sabaeus, single dose 100 µg/mL, 48 h, read-out: %Inhibition at100 µg/mL VERO
Experimental: as §1, §2

Structure (SMILES)	IC50 cytotoxic effect against MCF7 (MCF7) [µg/mL]	inhibition at 100 µg/mL [1] [%]	inhibition at 100 µg/mL [2] [%]	melting point [°C]	inhibition at 100 µg/mL [3] [%]	inhibition at 100 µg/mL [4] [%]	inhibition at 100 µg/mL [5] [%]	inhibition at 100 µg/mL [6] [%]	IC50 [1] [µg/mL]	IC50 [3] [µg/mL]
CCCCCCOc1ccc(/C=C/C(=O)c2ccc(C#N)cc2)cc1 [(E)-1-(4-cyanophenyl)-3-(4-(hexyloxy)phenyl) prop-2-en-1-one]	13.75 (≈ 41.2 µM)									
CCCCCCOc1ccc(/C=C/C(=O)c2ccc([N+](=O)[O-])cc2)cc1 [(E)-1-(4-nitrophenyl)-3-(4-(hexyloxy)phenyl) prop-2-en-1-one]	14.75 (≈ 41.7 µM)									
O=C(COc1ccc(C=CC(=O)c2cccs2)cc1)Nc1ccccc1 [Compound 5a, 2-(4-(3-Oxo-3-(thiophen-2-yl)prop-1-en-1-yl)phenoxy)-N-phenylacetamide]		33.7 ± 1.5	5.18 ± 1.6	194 to 196	4.53 ± 0.08	30 ± 1.2	22 ± 1.4	55 ± 3		
Cc1ccc(NC(=O)COc2ccc(C=CC(=O)c3cccs3)cc2)cc1 [Compound 5b, 2-(4-(3-Oxo-3-(thiophen-2-yl)prop-1-en-1-yl)phenoxy)-N-(p-tolyl)acetamide]		0.52 ± 2.1	5.92 ± 1.2	202 to 204	7.2 ± 1.4	25 ± 1.9	10.2 ± 2	60 ± 1		
O=C(COc1ccc(C=CC(=O)c2cccs2)cc1)Nc1ccc(Cl)cc1 [Compound 5d, N-(4-Chlorophenyl)-2-(4-(3-oxo-3-(thiophen-2-yl)prop-1-en-1-yl)phenoxy)acetamide]		40.09 ± 0.07	0.85 ± 1.1	198 to 200	0.36 ± 0.05	45.2 ± 1.7	44.1 ± 1.3	80 ± 2		
O=C(COc1ccc(C(=O)C=Cc2cccs2)cc1)Nc1ccccc1 [Compound 9a, N-Phenyl-2-(4-(3-(thiophen-2-yl)acryloyl)phenoxy)acetamide]		> 75	44.7 ± 1		> 75	64 ± 1.5	52 ± 2.7	58 ± 1.4	24.5 (≈ 67.4 µM)	15.5 (≈ 42.6 µM)
Cc1ccc(NC(=O)COc2ccc(C(=O)C=Cc3cccs3)cc2)cc1 [Compound 9b, 2-(4-(3-(Thiophen-2-yl)acryloyl)phenoxy)-N-(p-tolyl)acetamide]		18.6 ± 0.05	0.92 ± 1.7	200 to 202	17.9 ± 1.3	26 ± 1.7	33 ± 3.1	15 ± 2.4		
COc1ccc(NC(=O)COc2ccc(C(=O)C=Cc3cccs3)cc2)cc1 [Compound 9c, N-(4-Methoxyphenyl)-2-(4-(3-(thiophen-2-yl)acryloyl)phenoxy)acetamide]		1.81 ± 1.3	16.3 ± 1.9	205 to 207	7.2 ± 1.7	< 10	< 10	< 10		
O=C(COc1ccc(C(=O)C=Cc2cccs2)cc1)Nc1ccc(Cl)cc1 [Compound 9d, N-(4-Chlorophenyl)-2-(4-(3-(thiophen-2-yl)acryloyl)phenoxy)acetamide]		2.28 ± 4.1	6.66 ± 3.3	193 to 195	17.9 ± 2.3	< 10	< 10	10 ± 1		
COc1cccc2c1C(=O)c1c(O)c3c(c(O)c1C2=O)C[C@@](O)(C(=O)CO)C[C@@H]3O[C@H]1C[C@H](N)[C@H](O)[C@H](C)O1 [Doxorubicin, reference compound]		86.6 ± 1.6	71.5 ± 0.9		83.2 ± 1.1	81 ± 2	77 ± 1.5	45 ± 2	5.5 (≈ 10.1 µM)	11 (≈ 20.2 µM)
